{
  "source": "paper PMC12406195",
  "about": "“Understanding the Modes of Action of β‑Ketoiminato Iridium(III) Complexes in Cancer Cells” (Inorganic Chemistry, 2025)",
  "key": {"[1]": {"test_system": "plasmid DNA", "experiment": "Plasmid DNA interaction, agarose gel electrophoresis", "type": "biochemical", "settings": "200 ng plasmid DNA, 100–400 μM, cell-free", "procedure": "The ability of compounds to intercalate, nick, or cleave DNA can be evaluated using gel electrophoresis with plasmid DNA. In this study, in vitro plasmid DNA assays were performed by incubating 200 ng of plasmid DNA with different concentrations (100–400 μM) of 1 or CDDP, which served as a positive control. The DNA fragments were then separated via agarose gel electrophoresis, and potential changes in DNA migration patterns were analyzed.\n5 Plasmid DNA (200 ng) was incubated with varying concentrations (100, 200, and 400 μM) of compound 1 or CDDP for 24 h at room temperature. The DNA was then separated via agarose gel electrophoresis, and the intensity of supercoiled and nicked circular DNA bands was quantified and expressed as mean ± SEM (n = 4).\n(§1) MDA-MB-231 cells at 4000 cells/well were seeded into a black clear -bottom 96-well plate using phenol-red free complete RMPI medium, and incubated for 48 h. […] Fluorescence images were obtained using a Zeiss Observer 7 inverted microscope at excitation at 488 nm and emission at 509 […]\n(§2) Plasmid DNA (200 ng, pBOS -H2B-GFP, BD Biosciences) was incubated overnight at room temperature with 1 or CDDP at concentrations between 100 and 400 μM in double -distilled H2O (20 μL total volume). […] The experiment was conducted in two biological replicates, and the band intensities were quantified and analyzed using ImageJ software. […]"}, "[2]": {"test_system": "MDA-MB-231 cells", "experiment": "Nuclei morphology assay (DAPI)", "type": "cell-based, human", "settings": "MDA-MB-231, 48 h", "text": "The potential of compound 1 to trigger apoptosis in breast cancer cells was then studied. […] High-magnification insets (1–6) illustrate representative nuclear morphologies captured in the assay. Condensed, hyperintense nuclei with reduced area (e.g., images 1, 2 and 3), irregular nuclear blebs with discontinuous chromatin (e.g., images 3 and 4), and fragmented chromatin consistent with apoptotic bodies (e.g., images 5 and 6).\n7 Microscopic visualization of nuclear morphology changes in MDA-MB-231 breast cancer cells after 48 h exposure to compound 1 or CDDP. […] Images were acquired using a Leica DMI8 fluorescence microscope at 40× magnification. […]\nas §1, §2"}, "[3]": {"test_system": "MIA PaCa-2 cells", "experiment": "Chemosensitivity (MTT cell viability) assay, MIA PaCa-2", "type": "cell-based, human", "procedure": "(§3) All cytotoxicity assays were conducted using human cell lines: breast adenocarcinomas (MDA-MB-231 and MCF-7), pancreatic carcinoma (MIA PaCa-2) and non-cancerous epithelial retinal (ARPE-19) cell lines. All cell lines were routinely maintained as monolayer cultures in appropriate complete media:\n(§4) MCF-7, MIA PaCa-2 and ARPE-19 in high glucose DMEM and MDA-MB-231 in RPMI-1640, and both media were supplemented with 10% FBS, 1 mM sodium pyruvate, 2 mM L-glutamine, and 1% pen-strep. All cells were initially grown in T-25 or T-75 flasks at 37 °C and 5% CO2. Before chemosensitivity studies, cell monolayers were passaged using trypsin-EDTA (0.05%) and diluted to a concentration of 1 x 10^4 cells/mL (or 4 x 10^4 cells mL for 24 h assays). All assays were conducted in 96-well plates, in which 100 µL of the cell suspension was added for 24 h at 37 °C and 5% CO2, and then 100 µL of compound/medium dilutions for a further 96 h (or 24 h). All compound stocks were made using sterile DMSO at 100 mM before dilution, and a maximum of 0.1% DMSO was used in each assay. After incubation, 3-(4,5-dimethylthiazol-2-yl)-2,5-diphenyltetrazolium bromide (20 µL, 5 mg/mL in PBS) was added to each well and incubated for 3 h at 37°C and 5% CO2. All solutions were then aspirated, DMSO (150 µL) added to each well, gently mixed, and the absorbance was measured at 540 nm using a ClarioStar spectrophotometer microplate reader. Results were plotted on a logarithmic scale, and the half maximal inhibitory concentration (IC50) was determined from a triplicate of triplicate repeats (n = 9) and reported as an IC 50 ± Standard Deviation (SD)."}, "[4]": {"test_system": "MCF-7 cells", "experiment": "Chemosensitivity (MTT cell viability) assay, MCF-7", "type": "cell-based, human", "procedure": "as §3, §4"}, "[5]": {"test_system": "MDA-MB-231 cells", "experiment": "Chemosensitivity (MTT cell viability) assay, MDA-MB-231", "type": "cell-based, human", "settings": "for IC50: n = 9", "procedure": "as §3, §4"}},
  "data": [
    {"substance": "[Cp*Ir(C16H14NO)(PTA)](PF6) [Compound 1]", "values": [
      {"measurement": "Plasmid DNA migration", "setting": "[1]", "value": "did not induce any apparent shift"},
      {"measurement": "Nuclear morphology", "setting": "[2]", "value": "typical apoptotic features like DNA fragmentation and condensation"},
      {"measurement": "IC50", "setting": "[3]; MIA PaCa-2, 96 h, n = 9", "value": "9 ± 1", "unit": "µM"},
      {"measurement": "Selectivity index (SI)", "setting": "[3]; MIA PaCa-2 compared to ARPE-19, 96 h", "value": 1.2},
      {"measurement": "IC50", "setting": "[4]; MCF-7, 96 h, n = 9", "value": "48 ± 3", "unit": "µM"},
      {"measurement": "Selectivity index (SI)", "setting": "[4]; MCF-7 compared to ARPE-19, 96 h", "value": 0.2},
      {"measurement": "IC50", "setting": "[5]; MDA-MB-231, 24 h", "value": "18 ± 1", "unit": "µM"},
      {"measurement": "IC50", "setting": "[5]; MDA-MB-231, 96 h", "value": "6.3 ± 0.7", "unit": "µM"},
      {"measurement": "Selectivity index (SI)", "setting": "[5]; MDA-MB-231 compared to ARPE-19, 96 h", "value": 1.7}
    ]}
  ]
}
